Data published in ChEMBL document CHEMBL4411322 (J Med Chem, 2019).
Non-standard residues stand in square brackets, D forms with d. Residues, ends and D or L forms follow the SMILES beside them. dNMeF = CN[C@H](Cc1ccccc1)C(=O)O

What was measured:
Integrin alpha-V/beta-8 = Integrin alpha-V/beta-8 (Homo sapiens, UniProt P06756+P26012); assay: Inhibition of LAP binding to human integrin alphavbeta8 receptor after 1 hr by solid-phase binding assay; assay type: protein-complex assay
Integrin alpha-V/beta-6 = Integrin alpha-V/beta-6 (Homo sapiens, UniProt P06756+P18564); assay: Inhibition of LAP binding to human integrin alphavbeta6 receptor after 1 hr by solid-phase binding assay; assay type: protein-complex assay
Homo sapiens = organism: Homo sapiens; assay: Selectivity ratio of IC50 for human integrin alphavbeta6 receptor to IC50 for human integrin alphavbeta8 receptor

Integrin alpha-V/beta-6, sequence (P06756 31-889 limits assumed): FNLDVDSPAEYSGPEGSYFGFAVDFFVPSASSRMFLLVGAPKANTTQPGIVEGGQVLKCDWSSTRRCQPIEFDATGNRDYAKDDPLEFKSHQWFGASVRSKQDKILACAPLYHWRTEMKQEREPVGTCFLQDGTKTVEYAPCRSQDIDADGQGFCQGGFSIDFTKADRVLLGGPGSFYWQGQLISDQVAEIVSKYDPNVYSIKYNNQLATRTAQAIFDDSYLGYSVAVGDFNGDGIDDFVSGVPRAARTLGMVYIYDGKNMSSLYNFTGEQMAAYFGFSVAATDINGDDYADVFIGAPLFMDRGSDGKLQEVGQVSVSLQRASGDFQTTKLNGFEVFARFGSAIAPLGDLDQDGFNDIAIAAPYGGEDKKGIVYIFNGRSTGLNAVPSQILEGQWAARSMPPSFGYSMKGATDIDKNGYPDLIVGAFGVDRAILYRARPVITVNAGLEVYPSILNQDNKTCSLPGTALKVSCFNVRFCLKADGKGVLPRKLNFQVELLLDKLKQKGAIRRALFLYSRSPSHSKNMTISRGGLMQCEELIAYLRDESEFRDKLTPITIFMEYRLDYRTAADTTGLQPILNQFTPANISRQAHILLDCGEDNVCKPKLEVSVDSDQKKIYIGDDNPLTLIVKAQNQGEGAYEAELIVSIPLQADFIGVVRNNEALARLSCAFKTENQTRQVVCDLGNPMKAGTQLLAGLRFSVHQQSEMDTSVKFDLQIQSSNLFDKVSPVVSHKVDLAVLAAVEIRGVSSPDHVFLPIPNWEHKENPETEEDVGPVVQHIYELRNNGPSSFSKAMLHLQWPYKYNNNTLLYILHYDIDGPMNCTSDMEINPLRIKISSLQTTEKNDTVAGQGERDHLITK
Integrin alpha-V/beta-6, sequence (P06756 891-1048 limits assumed): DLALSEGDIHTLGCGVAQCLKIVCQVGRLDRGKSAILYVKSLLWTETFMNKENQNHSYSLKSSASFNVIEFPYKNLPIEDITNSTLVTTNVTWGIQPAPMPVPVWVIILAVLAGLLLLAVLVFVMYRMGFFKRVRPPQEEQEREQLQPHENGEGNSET
Integrin alpha-V/beta-6, sequence (P18564 22-788 limits assumed): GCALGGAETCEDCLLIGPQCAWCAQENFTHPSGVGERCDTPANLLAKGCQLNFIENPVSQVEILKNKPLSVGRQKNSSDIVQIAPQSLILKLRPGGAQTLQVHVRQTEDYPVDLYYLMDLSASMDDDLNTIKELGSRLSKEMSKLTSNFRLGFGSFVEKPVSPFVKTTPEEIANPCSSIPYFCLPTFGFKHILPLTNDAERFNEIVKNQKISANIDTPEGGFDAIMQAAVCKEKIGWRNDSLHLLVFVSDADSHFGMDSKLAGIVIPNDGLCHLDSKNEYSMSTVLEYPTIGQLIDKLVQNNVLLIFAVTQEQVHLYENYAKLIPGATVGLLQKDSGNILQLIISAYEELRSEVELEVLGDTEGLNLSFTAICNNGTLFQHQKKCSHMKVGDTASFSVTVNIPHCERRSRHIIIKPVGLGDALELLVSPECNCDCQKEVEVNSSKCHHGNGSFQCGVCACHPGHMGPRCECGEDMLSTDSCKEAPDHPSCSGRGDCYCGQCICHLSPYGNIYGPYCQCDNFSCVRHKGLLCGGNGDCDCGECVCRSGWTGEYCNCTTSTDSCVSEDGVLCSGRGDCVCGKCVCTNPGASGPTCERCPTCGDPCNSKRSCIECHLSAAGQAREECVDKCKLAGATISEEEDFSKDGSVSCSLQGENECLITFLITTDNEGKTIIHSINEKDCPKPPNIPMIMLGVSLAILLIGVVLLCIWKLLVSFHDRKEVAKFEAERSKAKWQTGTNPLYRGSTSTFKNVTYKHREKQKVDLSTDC
Integrin alpha-V/beta-8, sequence (P06756 31-889 limits assumed): as the sequence (P06756 31-889 limits assumed) above
Integrin alpha-V/beta-8, sequence (P06756 891-1048 limits assumed): as the sequence (P06756 891-1048 limits assumed) above
Integrin alpha-V/beta-8, sequence (P26012 43-769 limits assumed): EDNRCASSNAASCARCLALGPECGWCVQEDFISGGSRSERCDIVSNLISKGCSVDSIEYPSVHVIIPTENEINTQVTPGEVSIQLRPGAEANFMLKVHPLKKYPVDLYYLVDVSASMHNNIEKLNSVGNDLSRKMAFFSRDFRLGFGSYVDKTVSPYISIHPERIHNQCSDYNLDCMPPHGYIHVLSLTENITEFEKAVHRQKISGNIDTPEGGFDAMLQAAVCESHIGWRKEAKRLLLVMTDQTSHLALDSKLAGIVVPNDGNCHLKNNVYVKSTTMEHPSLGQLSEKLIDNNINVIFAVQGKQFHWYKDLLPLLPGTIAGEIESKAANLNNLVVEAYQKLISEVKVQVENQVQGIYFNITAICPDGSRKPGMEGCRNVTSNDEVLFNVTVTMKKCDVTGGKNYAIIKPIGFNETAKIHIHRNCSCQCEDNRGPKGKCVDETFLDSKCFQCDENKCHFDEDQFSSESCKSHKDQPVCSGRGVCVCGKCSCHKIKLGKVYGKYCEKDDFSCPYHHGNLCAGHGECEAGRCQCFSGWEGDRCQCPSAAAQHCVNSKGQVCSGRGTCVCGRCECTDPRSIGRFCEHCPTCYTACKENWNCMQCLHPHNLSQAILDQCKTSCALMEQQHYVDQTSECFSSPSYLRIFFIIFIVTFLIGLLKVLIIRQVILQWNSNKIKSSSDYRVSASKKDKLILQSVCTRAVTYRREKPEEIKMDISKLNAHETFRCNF

Structure (SMILES) | IC50 (Integrin alpha-V/beta-8; read-out: IC50) | IC50 (Integrin alpha-V/beta-6; read-out: IC50) | Ratio IC50 (Homo sapiens) | IC50 (Integrin alpha-V/beta-8) | IC50 (Integrin alpha-V/beta-6)
CC(C)C[C@@H]1NC(=O)[C@H](CC(=O)O)NC(=O)CNC(=O)[C@H](CCCNC(=N)N)NC(=O)[C@@H](c2ccccc2)NC(=O)[C@H](C)NC(=O)[C@@H]2CCCN2C(=O)[C@H]2CCCN2C1=O | 90.3 nM | 48.4 nM | – | – | –
CC(C)C[C@@H]1NC(=O)[C@H](C)NC(=O)[C@H](C(C)C)N(C)C(=O)[C@H]2CCCN2C(=O)[C@H](CC(C)C)NC(=O)[C@H](CC(=O)O)NC(=O)CNC(=O)[C@H](CCCNC(=N)N)NC1=O | 44 nM | 70 nM | 1.6 | – | –
CC(C)C[C@@H]1NC(=O)[C@H](C)NC(=O)[C@H](C)NC(=O)[C@H](CC(C)C)NC(=O)[C@H](CC(=O)O)NC(=O)CNC(=O)[C@H](CCCNC(=N)N)NC(=O)[C@@H]2CCCN2C(=O)[C@H]2CCCN2C(=O)[C@H](C)NC1=O | 614 nM | 14.5 nM | – | – | –
CC(C)C[C@@H]1NC(=O)[C@H](CC(=O)O)NC(=O)[C@@H]([C@H](C)O)NC(=O)[C@H](CCCNC(=N)N)NC(=O)[C@H](Cc2ccccc2)NC(=O)[C@H](C)NC(=O)[C@@H]2CCCN2C(=O)[C@H]2CCCN2C1=O | – | – | – | Not Active | Not Active
CC(=O)NCCCCCCN1C(=O)[C@H]2CCCN2C(=O)[C@H](CC(C)C)NC(=O)[C@H](CC(=O)O)NC(=O)CNC(=O)[C@H](CCCNC(=N)N)NC(=O)[C@H](CC(C)C)NC(=O)CNC(=O)[C@@H]1C | 20 nM | – | – | – | –
CC(C)C[C@@H]1NC(=O)[C@H](C)NC(=O)[C@H](C)NC(=O)[C@H](CC(C)C)NC(=O)[C@H](CC(=O)O)NC(=O)[C@H]([C@@H](C)O)NC(=O)[C@H](CCCNC(=N)N)NC(=O)[C@@H]2CCCN2C(=O)[C@H]2CCCN2C(=O)[C@H](C)NC1=O | 3080 nM | 1550 nM | – | – | –
CC(C)C[C@@H]1NC(=O)[C@H](CO)NC(=O)[C@@H]2CCCN2C(=O)[C@H]2CCCN2C(=O)[C@H](CC(C)C)NC(=O)[C@H](CC(=O)O)NC(=O)CNC(=O)[C@H](CCCNC(=N)N)NC1=O (cyclo(RGDL[dP]PSL)) | – | – | 15 | – | –
CC(C)C[C@@H]1NC(=O)[C@H](CC(=O)O)NC(=O)CNC(=O)[C@H](CCCNC(=N)N)NC(=O)[C@H](C)NC(=O)[C@@H]2CCCN2C(=O)[C@H]2CCCN2C1=O (cyclo(ARGDL[dP]P)) | 197 nM | – | 2.1 | – | –
CC(C)C[C@H]1NC(=O)[C@H](CC(=O)O)NC(=O)CNC(=O)[C@H](CCCNC(=N)N)NC(=O)[C@H](Cc2ccccc2)NC(=O)[C@H](C)NC(=O)[C@@H]2CCCN2C(=O)[C@H]2CCCN2C1=O | – | 559 nM | – | Not Active | –
CC(C)C[C@@H]1NC(=O)[C@H](C)NC(=O)[C@H](CCCCN)N(C)C(=O)[C@H]2CCCN2C(=O)[C@H](CC(C)C)NC(=O)[C@H](CC(=O)O)NC(=O)CNC(=O)[C@H](CCCNC(=N)N)NC1=O | 44 nM | 62 nM | 1.4 | – | –
CC(C)C[C@@H]1NC(=O)[C@H](CC(=O)O)NC(=O)[C@H]([C@@H](C)O)NC(=O)[C@H](CCCNC(=N)N)NC(=O)[C@H](Cc2ccccc2)NC(=O)[C@H](C)NC(=O)[C@@H]2CCCN2C(=O)[C@H]2CCCN2C1=O | 4.3 nM | 256 nM | 60 | – | –
CC(C)C[C@@H]1NC(=O)[C@H](C)NC(=O)[C@@H]2CCCN2C(=O)[C@@H](CCCCN)N(C)C(=O)[C@H](CC(C)C)NC(=O)[C@H](CC(=O)O)NC(=O)CNC(=O)[C@H](CCCNC(=N)N)NC1=O | 12.1 nM | 39 nM | 3.2 | – | –
CC(C)C[C@@H]1NC(=O)[C@@H]2CCCN2C(=O)[C@H]2CCCN2C(=O)[C@H](CC(C)C)NC(=O)[C@H](CC(=O)O)NC(=O)CNC(=O)[C@H](CCCNC(=N)N)NC(=O)[C@H](C)NC(=O)[C@H](C)NC(=O)[C@H](C)NC1=O | 631 nM | 889 nM | 1.4 | – | –
CC(C)C[C@@H]1NC(=O)[C@H](CC(=O)O)NC(=O)[C@H]([C@@H](C)O)NC(=O)[C@H](CCCNC(=N)N)NC(=O)[C@H](C)NC(=O)[C@@H]2CCCN2C(=O)[C@H]2CCCN2C(=O)[C@H](CC(C)C)NC(=O)[C@H](C)NC(=O)[C@H](C)NC1=O | 1290 nM | 264 nM | – | – | –
CC(C)C[C@@H]1NC(=O)[C@H](C)NC(=O)[C@H](Cc2ccccc2)N(C)C(=O)[C@H]2CCCN2C(=O)[C@H](CC(C)C)NC(=O)[C@H](CC(=O)O)NC(=O)CNC(=O)[C@H](CCCNC(=N)N)NC1=O | 25 nM | 74 nM | 3 | – | –
CC(C)C[C@@H]1NC(=O)[C@H](CC(=O)O)NC(=O)CNC(=O)[C@H](CCCNC(=N)N)NC(=O)[C@H](Cc2c[nH]c3ccccc23)NC(=O)[C@H](C)NC(=O)[C@@H]2CCCN2C(=O)[C@H]2CCCN2C1=O | 3.73 nM | 73 nM | 20.1 | – | –

Structure (SMILES) | IC50 (Integrin alpha-V/beta-8; read-out: IC50) | IC50 (Integrin alpha-V/beta-6; read-out: IC50) | Ratio IC50 (Homo sapiens) | IC50 (Integrin alpha-V/beta-8) | IC50 (Integrin alpha-V/beta-6)
CC(C)C[C@@H]1NC(=O)[C@H](CC(=O)O)NC(=O)[C@H](CO)NC(=O)[C@H](CCCNC(=N)N)NC(=O)[C@H](Cc2ccccc2)NC(=O)[C@H](C)NC(=O)[C@@H]2CCCN2C(=O)[C@H]2CCCN2C1=O | 5.8 nM | 369 nM | 64 | – | –
CC(C)C[C@@H]1NC(=O)[C@H](CC(=O)O)NC(=O)[C@H]([C@@H](C)O)NC(=O)[C@H](CCCNC(=N)N)NC(=O)[C@H](C)NC(=O)[C@H](CC(C)C)NC(=O)[C@@H]2CCCN2C(=O)[C@H]2CCCN2C(=O)[C@H](C)NC(=O)[C@H](C)NC1=O | 153 nM | 94.5 nM | – | – | –
CC(C)C[C@@H]1NC(=O)[C@H](CC(=O)O)NC(=O)CNC(=O)[C@H](CCCNC(=N)N)NC(=O)[C@H](CC(=O)O)NC(=O)[C@H](C)NC(=O)[C@@H]2CCCN2C(=O)[C@H]2CCCN2C1=O | 6.3 nM | 75.9 nM | 12 | – | –
CC(C)C[C@@H]1NC(=O)[C@H](CC(=O)O)NC(=O)CNC(=O)[C@H](CCCNC(=N)N)NC(=O)[C@H](C)NC(=O)[C@H](CC(C)C)NC(=O)[C@@H]2CCCN2C(=O)[C@H]2CCCN2C(=O)[C@H](C)NC(=O)[C@H](C)NC1=O | 109 nM | 13.4 nM | – | – | –
CC(C)C[C@@H]1NC(=O)[C@H](CC(=O)O)NC(=O)CNC(=O)[C@H](CCCNC(=N)N)NC(=O)[C@H](CCCCN)NC(=O)[C@H](C)NC(=O)[C@@H]2CCCN2C(=O)[C@H]2CCCN2C1=O | 7.32 nM | 40.7 nM | 5.6 | – | –
C[C@@H]1NC(=O)[C@@H]2CCCN2C(=O)[C@H]2CCCN2C(=O)[C@H](Cc2ccccc2)NC(=O)[C@H](CC(=O)O)NC(=O)CNC(=O)[C@H](CCCNC(=N)N)NC(=O)[C@H](Cc2ccccc2)NC1=O | 1150 nM | 324 nM | – | – | –
CC(C)C[C@@H]1NC(=O)[C@H](CC(=O)O)NC(=O)CNC(=O)[C@H](CCCNC(=N)N)NC(=O)[C@H](C)NC(=O)[C@@H]2CCCN2C(=O)[C@H]2CCCN2C(=O)[C@H](CC(C)C)NC(=O)[C@H](C)NC(=O)[C@H](C)NC1=O (cyclo(RGDLAAL[dP]PA)) | 88.6 nM | – | – | – | –
CC(C)C[C@@H]1NC(=O)[C@H](C)NC(=O)[C@@H]2CCCN2C(=O)[C@@H](CC(C)C)N(C)C(=O)[C@H](CC(C)C)NC(=O)[C@H](CC(=O)O)NC(=O)CNC(=O)[C@H](CCCNC(=N)N)NC1=O | 15 nM | 95 nM | 6.3 | – | –
CCNC(=N)NCCC[C@@H]1NC(=O)[C@H](CC(C)C)NC(=O)CNC(=O)[C@@H]2CCCN2C(=O)[C@H]2CCCN2C(=O)[C@H](CC(C)C)NC(=O)[C@H](CC(=O)O)NC(=O)CNC1=O | 38 nM | 769 nM | 20 | – | –
CC(=O)NCCCCN1C(=O)[C@H]2CCCN2C(=O)[C@H](CC(C)C)NC(=O)[C@H](CC(=O)O)NC(=O)CNC(=O)[C@H](CCCNC(=N)N)NC(=O)[C@H](CC(C)C)NC(=O)CNC(=O)[C@@H]1C | 27 nM | – | – | – | –
CC(=O)NCCCCCCNC(=N)NCCC[C@@H]1NC(=O)[C@H](CC(C)C)NC(=O)CNC(=O)[C@@H]2CCCN2C(=O)[C@H]2CCCN2C(=O)[C@H](CC(C)C)NC(=O)[C@H](CC(=O)O)NC(=O)CNC1=O | 230 nM | – | – | – | –
CC(C)[C@@H]1NC(=O)[C@H](CC(=O)O)NC(=O)CNC(=O)[C@H](CCCNC(=N)N)NC(=O)[C@H](Cc2ccccc2)NC(=O)[C@H](C)NC(=O)[C@@H]2CCCN2C(=O)[C@H]2CCCN2C1=O | 467 nM | – | – | – | Not Active
C[C@@H]1NC(=O)[C@@H]2CCCN2C(=O)[C@H]2CCCN2C(=O)[C@H](CCCCN)NC(=O)[C@H](CC(=O)O)NC(=O)CNC(=O)[C@H](CCCNC(=N)N)NC(=O)[C@H](Cc2ccccc2)NC1=O | 4340 nM | 826 nM | – | – | –
CC(C)C[C@@H]1NC(=O)[C@H](C)NC(=O)[C@@H]2CCCN2C(=O)[C@H]2CCCN2C(=O)[C@H](C)NC(=O)[C@H](CC(C)C)NC(=O)[C@H](CC(=O)O)NC(=O)CNC(=O)[C@H](CCCNC(=N)N)NC(=O)[C@H](C)NC1=O | 1110 nM | 69.9 nM | – | – | –
CC(C)C[C@@H]1NC(=O)[C@H](C)NC(=O)[C@@H]2CCCN2C(=O)[C@@H](Cc2ccccc2)N(C)C(=O)[C@H](CC(C)C)NC(=O)[C@H](CC(=O)O)NC(=O)CNC(=O)[C@H](CCCNC(=N)N)NC1=O (cyclo(RGDL[dNMeF]PAL)) | – | – | 15 | – | –
CC(C)C[C@@H]1NC(=O)[C@H](C)NC(=O)[C@@H]2CCCN2C(=O)[C@H]2CCCN2C(=O)[C@H](C)NC(=O)[C@H](CC(C)C)NC(=O)[C@H](CC(=O)O)NC(=O)[C@H]([C@@H](C)O)NC(=O)[C@H](CCCNC(=N)N)NC(=O)[C@H](C)NC1=O | 8410 nM | 495 nM | – | – | –
